# Results published in PubChem BioAssay (NCI).
#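 Protocol summary: plate cells (96-well), add compound at 5 concentrations, incubate 48 h, interpolate endpoints linearly. TGI denotes the concentration required for complete inhibition of growth.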
# How the values were obtained:
# Test in all cases: inhibition of tumour cell growth, NCI panel, 48 h
# NCI-H23 lung = test system: NCI-H23 lung
# HCC-2998 colon = test system: HCC-2998 colon
# LOX IMVI melanoma = test system: LOX IMVI melanoma
# HOP-62 NSCLC = test system: HOP-62 NSCLC
# EKVX NSCLC = test system: EKVX NSCLC
# UO-31 renal = test system: UO-31 renal
# ACHN renal = test system: ACHN renal
# MALME-3M melanoma = test system: MALME-3M melanoma
# SN12C renal = test system: SN12C renal
# HCT-15 colon = test system: HCT-15 colon
# MDA-MB-435 = test system: MDA-MB-435
# A549 NSCLC = test system: A549 NSCLC
# NCI-H522 lung = test system: NCI-H522 lung
# SK-MEL-2 melanoma = test system: SK-MEL-2 melanoma
# SF-268 CNS = test system: SF-268 CNS
# HS 578T breast = test system: HS 578T breast
# OVCAR-4 ovarian = test system: OVCAR-4 ovarian
# A498 renal = test system: A498 renal
# SNB-19 CNS = test system: SNB-19 CNS
# SW-620 colon = test system: SW-620 colon
# U251 CNS = test system: U251 CNS
# MOLT-4 leukemia = test system: MOLT-4 leukemia
# SNB-75 CNS = test system: SNB-75 CNS
# OVCAR-5 ovarian = test system: OVCAR-5 ovarian
# IGROV1 ovarian = test system: IGROV1 ovarian
# KM12 colon = test system: KM12 colon
# COLO 205 colon = test system: COLO 205 colon
# HOP-92 NSCLC = test system: HOP-92 NSCLC
# UACC-62 melanoma = test system: UACC-62 melanoma
# UACC-257 melanoma = test system: UACC-257 melanoma
# NCI-H460 lung = test system: NCI-H460 lung
# K-562 leukemia = test system: K-562 leukemia
# T-47D breast = test system: T-47D breast
# BT-549 breast = test system: BT-549 breast
# OVCAR-3 ovarian = test system: OVCAR-3 ovarian
# SF-295 CNS = test system: SF-295 CNS
# SR leukemia = test system: SR leukemia
# SK-OV-3 ovarian = test system: SK-OV-3 ovarian
# OVCAR-8 ovarian = test system: OVCAR-8 ovarian
# MCF7 breast = test system: MCF7 breast
# SK-MEL-28 melanoma = test system: SK-MEL-28 melanoma
# TK-10 renal = test system: TK-10 renal
# SF-539 CNS = test system: SF-539 CNS
# RPMI-8226 leukemia = test system: RPMI-8226 leukemia
# SK-MEL-5 melanoma = test system: SK-MEL-5 melanoma
# RXF 393 renal = test system: RXF 393 renal
# M14 melanoma = test system: M14 melanoma
# HT29 colon = test system: HT29 colon
# MDA-MB-231 breast = test system: MDA-MB-231 breast
# NCI-H226 lung = test system: NCI-H226 lung
# PC-3 prostate = test system: PC-3 prostate
# CAKI-1 renal = test system: CAKI-1 renal
# NCI/ADR-RES ovarian = test system: NCI/ADR-RES ovarian
# DU-145 prostate = test system: DU-145 prostate
# HCT-116 colon = test system: HCT-116 colon
# 786-0 renal = test system: 786-0 renal
# CCRF-CEM leukemia = test system: CCRF-CEM leukemia
compound,measurement,setting,value
COc1cc(CC2CCc3nc(N)nc(N)c3C2)cc(OC)c1OC (stereo unspecified),TGI,NCI-H23 lung,> 72.5 µM
same,TGI,HCC-2998 colon,> 46.9 µM
same,TGI,LOX IMVI melanoma,> 43.1 µM
same,TGI,HOP-62 NSCLC,69.7 µM
same,TGI,EKVX NSCLC,> 100 µM
same,TGI,UO-31 renal,> 71.5 µM
same,TGI,ACHN renal,> 45.6 µM
same,TGI,MALME-3M melanoma,28.4 µM
same,TGI,SN12C renal,> 100 µM
same,TGI,HCT-15 colon,> 100 µM
same,TGI,MDA-MB-435,> 100 µM
same,TGI,A549 NSCLC,> 100 µM
same,TGI,NCI-H522 lung,17 µM
same,TGI,SK-MEL-2 melanoma,> 56.6 µM
same,TGI,SF-268 CNS,13.4 µM
same,TGI,HS 578T breast,> 100 µM
same,TGI,OVCAR-4 ovarian,> 100 µM
same,TGI,A498 renal,> 87.8 µM
same,TGI,SNB-19 CNS,> 100 µM
same,TGI,SW-620 colon,> 100 µM
same,TGI,U251 CNS,> 100 µM
same,TGI,MOLT-4 leukemia,> 100 µM
same,TGI,SNB-75 CNS,> 48.8 µM
same,TGI,OVCAR-5 ovarian,> 100 µM
same,TGI,IGROV1 ovarian,98.2 µM
same,TGI,KM12 colon,> 100 µM
same,TGI,COLO 205 colon,21.6 µM
same,TGI,HOP-92 NSCLC,> 100 µM
same,TGI,UACC-62 melanoma,> 100 µM
same,TGI,UACC-257 melanoma,> 63.1 µM
same,TGI,NCI-H460 lung,> 91.5 µM
same,TGI,K-562 leukemia,> 100 µM
same,TGI,T-47D breast,> 100 µM
same,TGI,BT-549 breast,> 100 µM
same,TGI,OVCAR-3 ovarian,> 100 µM
same,TGI,SF-295 CNS,> 51.3 µM
same,TGI,SR leukemia,> 100 µM
same,TGI,SK-OV-3 ovarian,> 100 µM
same,TGI,OVCAR-8 ovarian,> 100 µM
same,TGI,MCF7 breast,> 100 µM
same,TGI,SK-MEL-28 melanoma,> 100 µM
same,TGI,TK-10 renal,> 100 µM
same,TGI,SF-539 CNS,> 60.4 µM
same,TGI,RPMI-8226 leukemia,> 68.4 µM
same,TGI,SK-MEL-5 melanoma,16.6 µM
same,TGI,RXF 393 renal,11.9 µM
same,TGI,M14 melanoma,28.7 µM
same,TGI,HT29 colon,> 100 µM
same,TGI,MDA-MB-231 breast,> 100 µM
same,TGI,NCI-H226 lung,> 66.1 µM
same,TGI,PC-3 prostate,> 100 µM
CC(=O)O[C@H]1C(=O)[C@@]2(C)C(C(OC(=O)c3ccccc3)[C@]3(O)CC(OC(=O)C(O)C(NC(=O)c4ccccc4)c4ccc(F)cc4)C(C)=C1C3(C)C)[C@]1(OC(C)=O)CO[C@@H]1C[C@@H]2O (stereo partly specified),TGI,NCI-H23 lung,> 10 µM
same,TGI,HCC-2998 colon,0.0193 µM
same,TGI,LOX IMVI melanoma,> 10 µM
same,TGI,HOP-62 NSCLC,> 10 µM
same,TGI,EKVX NSCLC,> 10 µM
same,TGI,UO-31 renal,> 10 µM
same,TGI,ACHN renal,> 10 µM
same,TGI,CAKI-1 renal,> 10 µM
same,TGI,NCI/ADR-RES ovarian,> 4.04 µM
same,TGI,SN12C renal,> 10 µM
same,TGI,HCT-15 colon,> 10 µM
same,TGI,DU-145 prostate,0.0104 µM
same,TGI,HCT-116 colon,0.103 µM
same,TGI,A549 NSCLC,> 10 µM
same,TGI,NCI-H522 lung,1.34 µM
same,TGI,SK-MEL-2 melanoma,3.27 µM
same,TGI,SF-268 CNS,> 10 µM
same,TGI,OVCAR-4 ovarian,> 10 µM
same,TGI,SNB-19 CNS,> 10 µM
same,TGI,SW-620 colon,> 10 µM
same,TGI,U251 CNS,> 10 µM
same,TGI,MOLT-4 leukemia,2.73 µM
same,TGI,SNB-75 CNS,> 10 µM
same,TGI,OVCAR-5 ovarian,> 7.89 µM
same,TGI,IGROV1 ovarian,> 10 µM
same,TGI,786-0 renal,> 10 µM
same,TGI,KM12 colon,> 5.45 µM
same,TGI,COLO 205 colon,0.0755 µM
same,TGI,HOP-92 NSCLC,> 10 µM
same,TGI,UACC-62 melanoma,> 10 µM
same,TGI,UACC-257 melanoma,> 10 µM
same,TGI,NCI-H460 lung,> 10 µM
same,TGI,K-562 leukemia,> 10 µM
same,TGI,T-47D breast,> 10 µM
same,TGI,BT-549 breast,> 10 µM
same,TGI,SF-295 CNS,1.42 µM
same,TGI,SR leukemia,> 3.82 µM
same,TGI,SK-OV-3 ovarian,> 10 µM
same,TGI,OVCAR-8 ovarian,> 10 µM
same,TGI,MCF7 breast,> 10 µM
same,TGI,TK-10 renal,> 10 µM
same,TGI,SF-539 CNS,0.00307 µM
same,TGI,RPMI-8226 leukemia,2.09 µM
same,TGI,CCRF-CEM leukemia,> 10 µM
same,TGI,SK-MEL-5 melanoma,> 3.32 µM
same,TGI,RXF 393 renal,0.0187 µM
same,TGI,M14 melanoma,> 7.03 µM
same,TGI,HT29 colon,> 3.4 µM
same,TGI,MDA-MB-231 breast,0.608 µM
same,TGI,PC-3 prostate,> 10 µM
